Experimental data reported in the Kinase Knowledgebase extract (Sharma et al. 2016).

Molecular target: PIK3CB;PIK3CG;PIK3CD;PIK3CA (human) (UniProt P48736)
Experiment: Enzyme Assay

| IC50 [nM] | SMILES |
| --- | --- |
| 3550 | COCCN1CCC[C@@H](n2nc(C(=O)N3CCOCC3)c3c2-c2ccccc2S(=O)(=O)C3)C1 |
| 957 | NC(=O)c1cccc(-n2nc(C(=O)N3CCOCC3)c3c2-c2ccccc2S(=O)(=O)C3)c1 |
| 24 | COc1ccc2c(c1)S(=O)(=O)Cc1c(C(=O)N3CCOCC3)nn([C@H]3CCCN(C4CCCOC4)C3)c1-2 (some centres undefined) |
| 193 | O=C(c1nn(-c2cccc(-c3ccncc3)c2)c2c1CS(=O)(=O)c1ccccc1-2)N1CCOCC1 |
| 40 | COc1cccc2c1S(=O)(=O)Cc1c(C(=O)N3CCOCC3)nn([C@H]3CCCN(CCN4CC(F)(F)C4)C3)c1-2 |
| 1740 | Cc1cccc2c1S(=O)(=O)Cc1c(C(=O)N3CCOCC3)nn(-c3ccccc3)c1-2 |
| 494 | O=C(c1nn(-c2ccccc2)c2c1CS(=O)(=O)c1c(Br)cccc1-2)N1CCOCC1 |
| 338 | O=C(c1nn(-c2cccc(-c3cnn(CCN4CCOCC4)c3)c2)c2c1CS(=O)(=O)c1ccccc1-2)N1CCOCC1 |
| 426 | CC1CCC(n2nc(C(=O)N3CCOCC3)c3c2-c2ccccc2S(=O)(=O)C3)CC1 (centres undefined) |
| 1300 | O=C(c1nn(-c2cccc(CN3CCOCC3)c2)c2c1CS(=O)(=O)c1ccccc1-2)N1CCOCC1 |
| 2280 | Cc1ccccc1-n1nc(C(=O)N2CCOCC2)c2c1-c1ccccc1S(=O)(=O)C2 |
| 149 | O=C(c1nn(C2CCCN(CCC(F)(F)F)C2)c2c1CS(=O)(=O)c1ccccc1-2)N1CCOCC1 (centres undefined) |
| 192 | O=C(c1nn(C2CCN(CCN3CCOCC3)C2)c2c1CS(=O)(=O)c1ccccc1-2)N1CCOCC1 (centres undefined) |
| 134 | Cc1nc(CN2CCCC(n3nc(C(=O)N4CCOCC4)c4c3-c3ccccc3S(=O)(=O)C4)C2)no1 (centres undefined) |
| 370 | O=C(c1nn(-c2ccc(CN3CCCCC3)nc2)c2c1CS(=O)(=O)c1ccccc1-2)N1CCOCC1 |
| 15 | O=C(c1nn([C@H]2CCCN(CCN3CCCCC3)C2)c2c1CS(=O)(=O)c1ccccc1-2)N1CCOCC1 |
| 107 | O=C(c1nn(-c2ccc(CNC3CCOCC3)cc2)c2c1CS(=O)(=O)c1ccccc1-2)N1CCOCC1 |
| 733 | O=C(CC1CCOCC1)N1CCC(n2nc(C(=O)N3CCOCC3)c3c2-c2ccccc2S(=O)(=O)C3)C1 (centres undefined) |
| 875 | O=C(NC1CCCCC1)N1CCC(n2nc(C(=O)N3CCOCC3)c3c2-c2ccccc2S(=O)(=O)C3)C1 (centres undefined) |
| 616 | O=C(c1nn(-c2cccc(Br)c2)c2c1CS(=O)(=O)c1ccccc1-2)N1CCOCC1 |
| 57 | O=C(c1nn(C2CCN(CC3CCOC3)C2)c2c1CS(=O)(=O)c1c(F)cccc1-2)N1CCOCC1 (centres undefined) |
| 280 | O=C(c1nn(-c2cccc(-c3cccnc3)c2)c2c1CS(=O)(=O)c1ccccc1-2)N1CCOCC1 |

| IC50 [nM] | SMILES |
| --- | --- |
| 4860 | Cc1nc(-c2cccc(-n3nc(C(=O)N4CCOCC4)c4c3-c3ccccc3S(=O)(=O)C4)c2)n[nH]1 |
| 104 | O=C(c1nn([C@@H]2CCCN(C3CCOCC3)CC2)c2c1CS(=O)(=O)c1ccccc1-2)N1CCOCC1 |
| 830 | O=C(c1nn([C@@H]2CCCN(CC3CCOCC3)C2)c2c1CS(=O)(=O)c1ncccc1-2)N1CCOCC1 |
| 1920 | O=C(c1nn(CCc2ccccn2)c2c1CS(=O)(=O)c1ccccc1-2)N1CCOCC1 |
| 3030 | O=C(c1ccc2c(c1)-c1c(c(C(=O)N3CCOCC3)nn1-c1ccccc1)CS2(=O)=O)N1CCOCC1 |
| 6530 | O=C(c1nn(-c2ccccc2)c2c1CS(=O)(=O)c1ccccc1-2)N1CCOC(CO)C1 (centres undefined) |
| 3050 | O=C(c1nn(-c2ccccc2)c2c1CS(=O)(=O)c1ccncc1-2)N1CCOCC1 |
| 11700 | COCN1c2c(C(=O)N3CCOCC3)nn(-c3ccccc3)c2-c2ccccc2S1(=O)=O |
| 182 | O=C(c1cccc(-n2nc(C(=O)N3CCOCC3)c3c2-c2ccccc2S(=O)(=O)C3)c1)N1CCCCC1 |
| 377 | CCCCn1nc(C(=O)N2CCOCC2)c2c1-c1ccccc1S(=O)(=O)C2 |
| 386 | O=C(c1nn(C2CCC(F)(F)CC2)c2c1CS(=O)(=O)c1ccccc1-2)N1CCOCC1 |
| 4040 | O=C(O)c1nn(-c2ccc(CN3CCOCC3)cc2)c2c1CS(=O)(=O)c1ccccc1-2 |
| 512 | O=C(c1nn(C2CCC(O)CC2)c2c1CS(=O)(=O)c1ccccc1-2)N1CCOCC1 (centres undefined) |
| 229 | O=C(c1nn(-c2ccc(CN3CC(F)C3)cc2)c2c1CS(=O)(=O)c1ccccc1-2)N1CCOCC1 |
| 1130 | O=C(c1nn(-c2cccnc2)c2c1CS(=O)(=O)c1ccccc1-2)N1CCOCC1 |
| 907 | COCCCn1nc(C(=O)N2CCOCC2)c2c1-c1ccccc1S(=O)(=O)C2 |
| 502 | O=C(c1cccc(-n2nc(C(=O)N3CCOCC3)c3c2-c2ccccc2S(=O)(=O)C3)c1)N1CCCC(CO)C1 (centres undefined) |
| 2040 | O=C(c1nn([C@@H]2CCN(C3CCOCC3)C2)c2c1CS(=O)(=O)c1c(F)cccc1-2)N1CCOCC1 |
| 27 | COc1ccc2c(c1)S(=O)(=O)Cc1c(C(=O)N3CCOCC3)nn([C@H]3CCCN(CCC4CCOCC4)C3)c1-2 |
| 244 | O=C(c1nn(-c2ccccc2)c2c1CS(=O)(=O)c1ccccc1-2)N1CCOCC1 |
| 44 | COc1ccc2c(c1)S(=O)(=O)Cc1c(C(=O)N3CCOCC3)nn([C@H]3CCCN(CC4CCOC4)C3)c1-2 (some centres undefined) |
| 14 | O=C(c1nn([C@H]2CCCN(CCN3CC[C@H](F)C3)C2)c2c1CS(=O)(=O)c1ccccc1-2)N1CCOCC1 |

| IC50 [nM] | SMILES |
| --- | --- |
| 136 | O=C(c1nn(C2CCCCC2)c2c1CS(=O)(=O)c1ccccc1-2)N1CCOCC1 |
| 1290 | COCCn1nc(C(=O)N2CCOCC2)c2c1-c1ccccc1S(=O)(=O)C2 |
| 3940 | O=C(c1nn(-c2ccc(N3CCOCC3)cc2)c2c1CS(=O)(=O)c1ccccc1-2)N1CCOCC1 |
| 1500 | O=C(c1nn([C@H]2CCCN(C(=O)C3CCOCC3)C2)c2c1CS(=O)(=O)c1ccccc1-2)N1CCOCC1 |
| 113 | COCCN(C)Cc1ccc(-n2nc(C(=O)N3CCOCC3)c3c2-c2ccccc2S(=O)(=O)C3)cc1 |
| 9800 | O=C(c1nn(N2CCOCC2)c2c1C(F)S(=O)(=O)c1ccccc1-2)N1CCOCC1 (centres undefined) |
| 6050 | CN1CCCC(Cn2nc(C(=O)N3CCOCC3)c3c2-c2ccccc2S(=O)(=O)C3)C1 (centres undefined) |
| 165 | COC1CN(Cc2ccc(-n3nc(C(=O)N4CCOCC4)c4c3-c3ccccc3S(=O)(=O)C4)cc2)C1 |
| 302 | O=C(c1nn(C2CCCCC2)c2c1CS(=O)(=O)c1sccc1-2)N1CCOCC1 |
| 2250 | O=C(c1nn(-c2cccc(CO)c2)c2c1CS(=O)(=O)c1ccccc1-2)N1CCOCC1 |
| 2480 | O=C(c1nn(-c2ccccc2)c2c1C(Cc1ccccc1)S(=O)(=O)c1ccccc1-2)N1CCOCC1 (centres undefined) |
| 1900 | O=C(c1nn(C2CCCNCC2)c2c1CS(=O)(=O)c1ccccc1-2)N1CCOCC1 (centres undefined) |
| 555 | O=C(c1nn(-c2ccc(CN3CCOCC3)cc2)c2c1CS(=O)(=O)c1ccc(F)cc1-2)N1CCOCC1 |
| 488 | O=C(c1nn(-c2cccc(Cn3cccn3)c2)c2c1CS(=O)(=O)c1ccccc1-2)N1CCOCC1 |
| 167 | CC(C)CCOC1CCN(Cc2ccc(-n3nc(C(=O)N4CCOCC4)c4c3-c3ccccc3S(=O)(=O)C4)cc2)C1 (centres undefined) |
| 45 | COCCN(C)CCN1CCC[C@H](n2nc(C(=O)N3CCOCC3)c3c2-c2ccccc2S(=O)(=O)C3)C1 |
| 223 | O=C(c1nn(C2CCOCC2)c2c1CS(=O)(=O)c1ccccc1-2)N1CCOCC1 |
| 73 | O=C(c1cccc(-n2nc(C(=O)N3CCOCC3)c3c2-c2ccccc2S(=O)(=O)C3)c1)N1CCOCC1 |
| 257 | O=C(c1nn(C2CCN(CCn3cccn3)C2)c2c1CS(=O)(=O)c1ccccc1-2)N1CCOCC1 (centres undefined) |
| 895 | O=C(c1nn(-c2ccc(Cl)cc2)c2c1CS(=O)(=O)c1ccccc1-2)N1CCOCC1 |
| 101 | CC1COCCN1CCN1CCC[C@H](n2nc(C(=O)N3CCOCC3)c3c2-c2ccccc2S(=O)(=O)C3)C1 (some centres undefined) |
| 389 | CC(C)CCOC1CCN(Cc2cccc(-n3nc(C(=O)N4CCOCC4)c4c3-c3ccccc3S(=O)(=O)C4)c2)C1 (centres undefined) |

| SMILES | IC50 [nM] |
| --- | --- |
| O=C(c1nn(CC2CCCC2)c2c1CS(=O)(=O)c1ccccc1-2)N1CCOCC1 | 247 |
| O=C(c1nn(C2CCCCC2)c2c1CS(=O)(=O)c1cc(Br)ccc1-2)N1CCOCC1 | 691 |
| O=C(c1nn(-c2ccccc2)c2c1CS(=O)(=O)c1cc(C(F)(F)F)ccc1-2)N1CCOCC1 | 3060 |
